The target of data set [1] is T1, bovine erythrocyte carbonic anhydrase II (Bos taurus, UniProt P00921).
T1 construct: purified bovine erythrocyte carbonic anhydrase II; from tissue; host or cells: bovine erythrocytes
In words: Carbonic anhydrase II inhibition, colorimetric 4-nitrophenyl acetate hydrolysis. It counts as biochemical. To be noted: for IC50: n = 2. The protocol:
The catalytic activity of carbonic anhydrase II was assessed by a colorimetric method, in which 4-nitrophenyl acetate is hydrolyzed to acetate and nitrophenolate. The nitrophenolate ionizes to generate a bright yellow anion that is readily detected by measuring its absorbance at 350-400 nm. […] Acetazolamide was added as a positive control and 100% DMSO was added as a negative control. The reaction was initiated with the addition of 20 μL of 4-nitrophenyl acetate (0.7 mM in ethanol).

Data set [2] can be described thus: In vitro stability of brinzolamide and dorzolamide NCEs (RP-HPLC). The settings on record: PBS pH 7, 10% DMSO; for in vitro stability / degradation kinetics: 37° C. and accelerated conditions, 14-19 days; for primary compound remaining: 37° C. The protocol: The samples were incubated at 37° C. or 50° C. to simulate physiological and accelerated degradation conditions, respectively. At various time points, 100 μL of the solution was collected, diluted 10-fold with MeCN+0.1% formic acid, filtered through a 0.2 μm nylon syringe filter and analyzed by RP-HPLC.

The nature of data set [3]: Determination of drug solubility. To be noted: for solubility: thermodynamic from solid. Format: physicochemical. As to the method:
For each test, approximately 5-10 mg was transferred to a 10 mL glass vial. Aqueous or organic solvent was added to each vial to achieve an overall concentration of 50 mg/mL. After vortexing aggressively for 2-3 minutes and sonicating in a bath sonicator for 5 minutes, undissolved drug was spun down at 1200 rpm for 5 minutes to generate a pellet. The supernatant was collected and filtered through a 0.2 μm nylon syringe filter into HPLC vials for drug content analysis. Drug concentration was determined by comparing against a standard calibration curve.

Setting [4] is: DCM, organic solvent or mixture, read-out: Solubility DCM.
[5] abbreviates: DMSO, organic solvent or mixture, read-out: Solubility DMSO.
Setting [6] is: water / aqueous solvent, read-out: Solubility Water.

We go through 20 compounds from patent publication US10117950B2, “Compounds and compositions for the treatment of ocular disorders” (Graybug Vision, Inc., priority 2015, dated 2018).

Where two headings read alike, the source gives them in different places.

T1 sequence (P00921 whole entry): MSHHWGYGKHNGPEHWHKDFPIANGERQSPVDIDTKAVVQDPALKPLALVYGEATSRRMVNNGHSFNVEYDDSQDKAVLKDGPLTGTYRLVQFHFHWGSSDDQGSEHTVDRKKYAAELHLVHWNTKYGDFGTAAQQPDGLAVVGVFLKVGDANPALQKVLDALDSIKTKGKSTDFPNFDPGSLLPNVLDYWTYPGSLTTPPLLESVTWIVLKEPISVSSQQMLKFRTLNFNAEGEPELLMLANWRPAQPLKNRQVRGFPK

Turning to `CCN[C@H]1C[C@H](C)S(=O)(=O)c2sc(S(=O)(=O)NC(=O)[C@H](C)O)cc21` [19-3, dorzolamide-PLA (n=1)], the IC50 in data set [1] stood at 0.00332 ± 0.00271 µM. Besides, in data set [2], the “in vitro stability / degradation kinetics” value is reported as “the most stable”.

With `CCN[C@H]1C[C@H](C)S(=O)(=O)c2sc(S(=O)(=O)NC(=O)[C@H](C)OC(=O)[C@H](C)OC(=O)[C@H](C)OC(C)=O)cc21` [26-1], inhibition in data set [1] was half-maximal at 0.0164 ± 0.00725 µM (IC50). Besides, the solubility in data set [3] (setting [4]), in data set [3] (setting [5]) and in data set [3] (setting [6]) was greater than 50 mg/mL each time.

The compound `CCN[C@H]1C[C@H](C)S(=O)(=O)c2sc(S(=O)(=O)NC(=O)[C@H](C)OC(=O)[C@H](C)OC(=O)[C@H](C)OC(=O)[C@H](C)OC(C)=O)cc21` [27-1] yielded a half-maximal inhibitory concentration (IC50) in data set [1] of 0.0441 ± 0.0148 µM. Moreover, the solubility in data set [3] (setting [4]) is greater than 50 mg/mL; in data set [3] (setting [5]), greater than 50 mg/mL; in data set [3] (setting [6]), less than 1 mg/mL.

Consider `CCN[C@H]1C[C@H](C)S(=O)(=O)c2sc(S(=O)(=O)NC(=O)[C@H](C)OC(=O)[C@H](C)OC(=O)[C@H](C)OC(=O)[C@H](C)OC(=O)[C@H](C)OC(C)=O)cc21` [28-1, dorzolamide-acetyl PLA (n=5)], for which the IC50 in data set [1] was 0.0892 ± 0.0181 µM. Moreover, the solubility is greater than 50 mg/mL in data set [3] (setting [4]), greater than 50 mg/mL in data set [3] (setting [5]) and less than 1 mg/mL in data set [3] (setting [6]).

`CCN[C@H]1C[C@H](C)S(=O)(=O)c2sc(S(=O)(=O)NC(=O)[C@H](C)OC(=O)[C@H](C)OC(=O)[C@H](C)OC(=O)[C@H](C)OC(=O)[C@H](C)OC(=O)[C@H](C)OC(C)=O)cc21` [29-1, dorzolamide-acetyl PLA (n=6)]: the figures for the solubility in data set [3] (setting [4]), in data set [3] (setting [5]) and in data set [3] (setting [6]) were greater than 50 mg/mL, greater than 50 mg/mL and less than 1 mg/mL, respectively.

Consider `CCN[C@H]1CN(CCCOC)S(=O)(=O)c2sc(S(=O)(=O)NC(=O)[C@H](C)O)cc21` [32-3, brinzolamide-PLA (n=1)], for which the IC50 in data set [1] was found to be 0.00578 ± 0.00378 µM. In data set [2], the “in vitro stability / degradation kinetics” value is given as “slowest”. Moreover, in data set [2] (14 days), the primary compound remaining is on record as greater than 98%.

As to `CCN[C@H]1CN(CCCOC)S(=O)(=O)c2sc(S(=O)(=O)NC(=O)[C@H](C)OC(=O)[C@H](C)O)cc21` [33-2, brinzolamide-PLA (n=2)], in data set [1], the IC50 was 0.0107 ± 0.00727 µM. The solubility in data set [3] (setting [4]), in data set [3] (setting [5]) and in data set [3] (setting [6]) was greater than 50 mg/mL each time. The primary compound remaining result in data set [2] (14 days) is on record as “approximately 53%”.

In turn, `CCN[C@H]1CN(CCCOC)S(=O)(=O)c2sc(S(=O)(=O)NC(=O)[C@H](C)OC(=O)[C@H](C)OC(=O)[C@H](C)O)cc21` [34-2, brinzolamide-PLA (n=3)] gave an IC50 in data set [1] of 0.0215 ± 0.0112 µM. The solubility in data set [3] (setting [4]), in data set [3] (setting [5]) and in data set [3] (setting [6]) was greater than 50 mg/mL throughout. Further, in data set [2], the “in vitro stability / degradation kinetics” value is reported as “minimal degradation to the parent compound”. Moreover, in data set [2] (day 7), the primary compound remaining result is “approximately 2.7%”.

As to `CCN[C@H]1CN(CCCOC)S(=O)(=O)c2sc(S(=O)(=O)NC(=O)[C@H](C)OC(=O)[C@H](C)OC(=O)[C@H](C)OC(C)=O)cc21` [36-1, brinzolamide-acetyl PLA (n=3)], the solubility in data set [3] (setting [4]), in data set [3] (setting [5]) and in data set [3] (setting [6]) was greater than 50 mg/mL throughout. The primary compound remaining entry in data set [2] (day 7) is listed as “approximately 15.4%”.

`CCN[C@H]1CN(CCCOC)S(=O)(=O)c2sc(S(=O)(=O)NC(=O)[C@H](C)OC(=O)[C@H](C)OC(=O)[C@H](C)OC(=O)[C@H](C)OC(C)=O)cc21` [37-1, brinzolamide-acetyl PLA (n=4)] yielded an IC50 in data set [1] of 0.0415 ± 0.0112 µM. The solubility in data set [3] (setting [4]) is greater than 50 mg/mL; in data set [3] (setting [5]), greater than 50 mg/mL; in data set [3] (setting [6]), less than 1 mg/mL.

`CCN[C@H]1CN(CCCOC)S(=O)(=O)c2sc(S(=O)(=O)NC(=O)[C@H](C)OC(=O)[C@H](C)OC(=O)[C@H](C)OC(=O)[C@H](C)OC(=O)[C@H](C)OC(C)=O)cc21` [38-1, brinzolamide-acetyl PLA (n=5)]: in data set [1], the IC50 is 0.102 ± 0.0314 µM. For the same compound, the solubility in data set [3] (setting [4]) was greater than 50 mg/mL; in data set [3] (setting [5]) it was greater than 50 mg/mL; in data set [3] (setting [6]), less than 1 mg/mL.

`CCN[C@H]1CN(CCCOC)S(=O)(=O)c2sc(S(=O)(=O)NC(=O)[C@H](C)OC(=O)[C@H](C)OC(=O)[C@H](C)OC(=O)[C@H](C)OC(=O)[C@H](C)OC(=O)[C@H](C)OC(C)=O)cc21` [39-1, brinzolamide-acetyl PLA (n=6)] returned a half-inhibitory concentration (IC50) in data set [1] of 0.172 ± 0.0356 µM. The results for the solubility in data set [3] (setting [4]), in data set [3] (setting [5]) and in data set [3] (setting [6]) were greater than 50 mg/mL, greater than 50 mg/mL and less than 1 mg/mL, respectively.

For the compound `CCN[C@H]1CN(CCCOC)S(=O)(=O)c2sc(S(=O)(=O)NC(=O)[C@H](C)OC(=O)[C@H](C)OC(=O)[C@H](C)OC(C)(C)C)cc21` [40-1, brinzolamide-t-butyl PLA (n=3)], the “in vitro stability / degradation kinetics” value in data set [2] is reported as “significantly slower than its acetylated (36-1) or uncapped counterpart (34-2)”.

In the case of `CCN(CC)CCNC(=O)c1c(C)[nH]c(/C=C2\C(=O)Nc3ccc(N)cc32)c1C` [47-1, 5-[5-amino-2-oxo-1,2-dihydro-indol-(3Z)-ylidenemethyl]-2,4-dimethyl-1H-pyrrole-3-carboxylic acid (2-diethylamino-ethyl)-amide], the results for the solubility in data set [3] (setting [5]) and in data set [3] (setting [6]) were greater than 50 mg/mL and less than 1 mg/mL, respectively.

On to `C=C(CC)C(=O)c1ccc(OCC(=O)O)c(Cl)c1Cl` [54-1, ethacrynic acid], for which, in data set [3] (DMSO), the “Solubility DMSO” value is on record as greater than 50 mg/mL. In data set [3] (water / aqueous solvent), the “Solubility Water” value is less than 1.0 mg/mL.

Turning to `CCN[C@H]1C[C@H](C)S(=O)(=O)c2sc(S(=O)(=O)NC(=O)[C@H](C)OC(=O)[C@H](C)OC(=O)[C@H](C)OC(=O)CCC(=O)Oc3ccc4c(c3)/C(=C/c3[nH]c(C)c(C(=O)NCCN(CC)CC)c3C)C(=O)N4)cc21` [56-5, (3Z)-3-[(4-{[2-(Diethylamino)ethyl]carbamoyl}-3,5-dimethyl-1H-pyrrol-2-yl)methylidene]-2-oxo-2,3-dihydro-1H-indol-5-yl 1-(2S)-1-{[(2S)-1-[(1S)-1-({[(2S,4S)-4-(ethylamino)-2-methyl-1,1-dioxo-2H,3H,4H-1λ^6-thieno[2,3-b]thiopyran-6-yl]sulfonyl}carbamoyl)ethoxy]-1-oxopropan-2-yl]oxy}-1-oxopropan-2-yl butanedioate], in data set [1], the “carbonic anhydrase inhibitory activity” value is on record as “lowest inhibitory activity” and the IC50 amounted to 0.184 ± 0.0448 µM. Besides, the solubility in data set [3] (setting [5]) was greater than 50 mg/mL. Also, the solubility in data set [3] (setting [6]) was less than 1 mg/mL.

On to `CCN(CC)CCNC(=O)c1c(C)[nH]c(/C=C2\C(=O)Nc3ccc(OC(=O)CCCCC(=O)N(CC)[C@H]4CN(CCCOC)S(=O)(=O)c5sc(S(=O)(=O)NC(=O)[C@H](C)OC(=O)[C@H](C)OC(=O)[C@H](C)O)cc54)cc32)c1C` [61-2, (3Z)-3-[(4-{[2-(diethylamino)ethyl]carbamoyl}-3,5-dimethyl-1H-pyrrol-2-yl)methylidene]-2-oxo-2,3-dihydro-1H-indol-5-yl 5-{ethyl[(4R)-6-{[(2S)-2-{[(2S)-2-{[(2S)-2-hydroxypropanoyl]oxy}propanoyl]oxy}propanamido]sulfonyl}-2-(3-methoxypropyl)-1,1-dioxo-2H,3H,4H-1λ^6-thieno[3,2-e][1,2]thiazin-4-yl]carbamoyl}pentanoate], for which the solubility in data set [3] (setting [5]) was greater than 50 mg/mL; in data set [3] (setting [6]), less than 1 mg/mL.

Consider `CCN[C@H]1CN(CCCOC)S(=O)(=O)c2sc(S(=O)(=O)NC(=O)[C@H](C)OC(=O)[C@H](C)OC(=O)[C@H](C)OC(=O)CCCCC(=O)Oc3ccc4c(c3)/C(=C/c3[nH]c(C)c(C(=O)NCCN(CC)CC)c3C)C(=O)N4)cc21` [61-3, (3Z)-3-[(4-{[2-(diethylamino)ethyl]carbamoyl}-3,5-dimethyl-1H-pyrrol-2-yl)methylidene]-2-oxo-2,3-dihydro-1H-indol-5-yl 1-(2S)-1-[(2S)-1-[(1S)-1-({[(4R)-4-(ethylamino)-2-(3-methoxypropyl)-1,1-dioxo-2H,3H,4H-1λ^6-thieno[3,2-e][1,2]thiazin-6-yl]sulfonyl}carbamoyl)ethoxy]-1-oxopropan-2-yl]oxy}-1-oxopropan-2-yl hexanedioate], for which, in data set [3] (DMSO), the “Solubility DMSO” value is recorded as greater than 50 mg/mL. Besides, in data set [3] (water / aqueous solvent), the “Solubility Water” value was less than 1.0 mg/mL.

For the compound `CCN[C@H]1CN(CCCOC)S(=O)(=O)c2sc(S(N)(=O)=O)cc21` [Brinzolamide, reference compound], the solubility in data set [3] (setting [4]) was less than 7.5 mg/mL; in data set [3] (setting [5]), greater than 50 mg/mL; in data set [3] (setting [6]), less than 1 mg/mL. Further, the “Solubility DMSO” value in data set [3] (DMSO) is reported as greater than 50 mg/mL. For the same compound, in data set [3] (water / aqueous solvent), the “Solubility Water” value was less than 1.0 mg/mL.

In the case of `CCN[C@H]1C[C@H](C)S(=O)(=O)c2sc(S(N)(=O)=O)cc21` [Dorzolamide, reference compound], the solubility in data set [3] (setting [4]) is less than 1 mg/mL; in data set [3] (setting [5]) it was less than 1 mg/mL; in data set [3] (setting [6]), greater than 50 mg/mL. Moreover, in data set [3] (organic solvent), the organic solubility entry was “low organic solubility”. Also, the “Solubility Water” value in data set [3] (water / aqueous solvent) is greater than 50 mg/mL.

One may read the IC50 as the concentration that inhibits the measured activity by half. Read a high IC50 as a need for much substance. One may read the solubility as the dissolved amount per volume that the medium holds.
